These results are taken from US8575349B2, “Derivatives of 1-alkyl-6-oxo-piperidine-3-carboxylic acids and 1-alkyl-5-oxo-pyrrolidine-3-carboxylic acids and their uses as cooling compounds” (International Flavors & Fragrances Inc., priority 2010, dated 2013).

Format in all cases: in vivo
The nature of assay [1]: Taste evaluation of the compound in water (cooling effect).
The nature of assay [2]: Chewing gum containing the compound: cooling/taste profile over time. The following applies: for Profile: gum; for overall effect of test gum versus control gum: orange-flavored gum. The procedure: The above formulation was prepared in a Sigma mixer. The resultant chewing gum blend was manufactured into strips of 1 inch in width and 0.1 inches in thickness. The strips were subsequently cut into a length of 3 inches each. […] A test gum was further prepared by adding 1-(2-isopropyl-5-methyl-cyclohexyl)-4-(pyrrolidine-1-carbonyl)-pyrrolidin-2-one (Structure VI, 800 ppm) or 1-(2-isopropyl-5-methyl-cyclohexyl)-4-(piperidine-1-carbonyl)-pyrrolidin-2-one (Structure VII, 1200 ppm).

Assay [3] in a line: Hard candy containing the compound: cooling/taste profile over time. The following applies: 300 ppm; for overall effect of test candy versus control candy: cherry flavored hard candy; for Profile: hard candy. The protocol:
First, the following formulation was prepared: […]
The above formulation was added to a stainless steel pot. With constant mixing, the formulation temperature was raised to 138° C. The pot was then removed from the heat, allowing cool to 120° C. and 0.7 g of flavor containing the ingredients in equal amounts: benzaldehyde, tolyl aldehyde, ethyl acetate, maltol, Davana oil, methyl heptinyl carbonate and 3 g of citric acid was added. The resulting cherry flavored liquid candy was then deposited into molds, and the molds containing the liquid candy were cooled to room temperature, yielding 600 g of finished hard candy. […] A test candy was further prepared using the above recipe modified by adding 0.18 g of 1-(2-isopropyl-5-methyl-cyclohexyl)-4-(pyrrolidine-1-carbonyl)-pyrrolidin-2-one (Structure VI, 300 ppm) or 1-(2-isopropyl-5-methyl-cyclohexyl)-4-(piperidine-1-carbonyl)-pyrrolidin-2-one (Structure VII, 300 ppm).

Take `COC(=O)C1CC(=O)N(C2CC(C)CCC2C(C)C)C1` (stereo not shown) [Structure I, 1-(2-isopropyl-5-methyl-cyclohexyl)-5-oxo-pyrrolidine-3-carboxylic acid methyl ester]: the “taste description / cooling effect” value in assay [1] (10 ppm in water) is given as “mild cooling effect”.

Consider `CC1CCC(C(C)C)C(N2CC(C(=O)O)CC2=O)C1` (stereo not shown) [Structure II, 1-(2-isopropyl-5-methyl-cyclohexyl)-5-oxo-pyrrolidine-3-carboxylic acid], for which the “taste description / cooling effect” value in assay [1] (10 ppm in water) is listed as “some cooling effect developed in the back of throat”.

In the case of `CC(C)CNC(=O)C1CC(=O)N(C2CC(C)CCC2C(C)C)C1` (stereo not shown) [Structure III, 1-(2-isopropyl-5-methyl-cyclohexyl)-5-oxo-pyrrolidine-3-carboxylic acid isobutyl-amide], the “taste description / cooling effect” value in assay [1] (10 ppm in water) is given as “mild cooling effect”.

Turning to `CCN(C)C(=O)C1CC(=O)N(C2CC(C)CCC2C(C)C)C1` (stereo not shown) [Structure IV, 1-(2-isopropyl-5-methyl-cyclohexyl)-5-oxo-pyrrolidine-3-carboxylic acid ethyl-methyl-amide], the “taste description / cooling effect” value in assay [1] (10 ppm in water) is “mild cooling effect”.

For `COC(=O)C1CC(=O)N(C2CCCCC2C)C1` (stereo not shown) [Structure IX, 1-(2-methyl-cyclohexyl)-5-oxo-pyrrolidine-3-carboxylic acid methyl ester], in assay [1] (40 ppm in water), the “taste description / cooling effect” value was “slight upfront bitterness for ˜20-30 seconds and mild cooling effect that slightly built up in a few minutes”.

With `CC1CCC(C(C)C)C(N2CC(C(=O)N3CCC3)CC2=O)C1` (stereo not shown) [Structure V, 4-(azetidine-1-carbonyl)-1-(2-isopropyl-5-methyl-cyclohexyl)-pyrrolidin-2-one], the “taste description / cooling effect” value in assay [1] (40 ppm in water) was “mild cooling, earthy, off-flavor, not bitter, napthalene, herbaceous, slight tingle effect on the tip of tongue, and garden hose, carrot, astringent, and waxy effect”.

As for `CC1CCC(C(C)C)C(N2CC(C(=O)N3CCCC3)CC2=O)C1` (stereo not shown) [Structure VI, 1-(2-isopropyl-5-methyl-cyclohexyl)-4-(pyrrolidine-1-carbonyl)-pyrrolidin-2-one], the Profile entry in assay [2] (800 ppm, at 1-3 minutes) is “At 1-3 minutes: cooling delocalized on the tongue;”; in assay [2] (800 ppm, at 3-5 minutes), “At 3-5 minutes: mild cooling located on the tongue;”; in assay [2] (800 ppm, at 5-10 minutes), “At 5-10 minutes: moderate cooling on the tongue and the roof”; in assay [2] (800 ppm, at 20-30 minutes), “At 20-30 minutes: clean sensation with a little bitterness”; in assay [3] (at 0-1 minute), “At 0-1 minute: cooling with slight bitterness;”; in assay [3] (at 1-3 minutes), “At 1-3 minutes: cooling built up;”. The Profile entry in assay [3] (at 3-5 minutes) is listed as “At 3-5 minutes: cooling on the roof of mouth;”; in assay [3] (at 5-10 minutes) it was “At 5-10 minutes: cooling with some bitterness;”; in assay [3] (at 10-20 minutes), “At 10-20 minutes: cooling with mild bitterness;”; in assay [3] (at 20-30 minutes), “At 20-30 minutes: cooling remained”. Moreover, the “overall effect of test gum versus control gum” value in assay [2] (800 ppm) is given as “pleasant cooling effect”. For the same compound, in assay [3], the “overall effect of test candy versus control candy” value is given as “substantial cooling effect”. Besides, the “taste description / cooling effect” value in assay [1] (10 ppm in water) is “mild cooling effect with slight bitterness, the cooling effect built up over the time”; in assay [1] (50 ppm in water), “cooling effect with bitterness, a menthol-like burning taste, and a nice built-up cooling taste”.

With `CC1CCC(C(C)C)C(N2CC(C(=O)N3CCCCC3)CC2=O)C1` (stereo not shown) [Structure VII, 1-(2-isopropyl-5-methyl-cyclohexyl)-4-(piperidine-1-carbonyl)-pyrrolidin-2-one], the Profile result is “At 0-1 minute: cooling onset, throat and slight tongue irritation,” in assay [2] (1200 ppm, at 0-1 minute); “At 1-3 minutes: cooling and irritation delocalized with some” in assay [2] (1200 ppm, at 1-3 minutes); “At 3-5 minutes: full mouth cooling, throughout mouth but not” in assay [2] (1200 ppm, at 3-5 minutes); “At 5-10 minutes: strong cooling in mouth, concentrated in the” in assay [2] (1200 ppm, at 5-10 minutes); “At 10-20 minutes: cooling peaked, consistent without any” in assay [2] (1200 ppm, at 10-20 minutes); “At 20-30 minutes: strong cooling in mouth and throat,” in assay [2] (1200 ppm, at 20-30 minutes). The Profile result in assay [3] (at 0-1 minute) was “At 0-1 minute: bitterness;”; in assay [3] (at 1-3 minutes), “At 1-3 minutes: cooling breath, strong cooling;”; in assay [3] (at 3-5 minutes), “At 3-5 minutes: intense cooling;”; in assay [3] (at 5-10 minutes), “At 5-10 minutes: intense cooling throughout mouth;”; in assay [3] (at 10-20 minutes), “At 10-20 minutes: very strong cooling, almost burning;”; in assay [3] (at 20-30 minutes) it was “At 20-30 minutes: strong and lasting cooling”. Besides, the “overall effect of test gum versus control gum” value in assay [2] (1200 ppm) is on record as “pleasant cooling effect”. Further, the “overall effect of test candy versus control candy” value in assay [3] is “substantial cooling effect”. Also, in assay [1] (40 ppm in water), the “taste description / cooling effect” value was “slight upfront bitterness, herbaceous flavor, and built-up cooling effect”.

For the compound `CC1CCC(C(C)C)C(N2CC(C(=O)N3CCCCCC3)CC2=O)C1` (stereo not shown) [Structure VIII, 4-(azepane-1-carbonyl)-1-(2-isopropyl-5-methyl-cyclohexyl)-pyrrolidin-2-one], in assay [1] (40 ppm in water), the “taste description / cooling effect” value is “bitterness and cooling effect and both built up”.

On to `CC(C)(C)C1CCCCC1N1CC(C(=O)N2CCCC2)CC1=O` (stereo not shown) [Structure X, 1-(2-tert-butyl-cyclohexyl)-4-(pyrrolidine-1-carbonyl)-pyrrolidin-2-one], for which the “taste description / cooling effect” value in assay [1] (40 ppm in water) is “upfront bitterness, quinine, drying, greasy, and burning effect”.

For the compound `CC(C)(C)C1CCCCC1N1CC(C(=O)N2CCCCC2)CC1=O` (stereo not shown) [Structure XI, 1-(2-tert-butyl-cyclohexyl)-4-(piperidine-1-carbonyl)-pyrrolidin-2-one], the “taste description / cooling effect” value in assay [1] (40 ppm in water) was “some bitterness and drying, powdery, and minimal cooling effect”.

As to `CC1CCC(C(C)C)C(N2CC(C(=O)N3CCCC3)CCC2=O)C1` (stereo not shown) [Structure XII, 1-(2-isopropyl-5-methyl-cyclohexyl)-5-(pyrrolidine-1-carbonyl)-piperidin-2-one], the “taste description / cooling effect” value in assay [1] (40 ppm in water) is “slight cooling, and bitter and drying effect”.

Regarding `CC1CCC(C(C)C)C(N2CC(C(=O)N3CCCCC3)CCC2=O)C1` (stereo not shown) [Structure XIII, 1-(2-isopropyl-5-methyl-cyclohexyl)-5-(piperidine-1-carbonyl)-piperidin-2-one], the “taste description / cooling effect” value in assay [1] (40 ppm in water) was “grapefruit-like bitterness, and very mild cooling and drying effect”.
